Source: US10538532B2, “Hepatitis B antiviral agents” (ENANTA PHARMACEUTICALS, INC., priority 2016, dated 2020)

These molecules were tested on HBV (assay: HepAD38 antiviral assay: reduction of viral product accumulation (virion DNA by qPCR, HBsAg or HBeAg by ELISA)). Settings: HepAD38 cells, five days after compound addition; concentration reducing viral product accumulation by 50% relative to no drug controls; read-out: HepAD38 EC50.
Assay type: cell-based, hepatitis B virus
Description: Methods: HepAD38 cells are maintained as previously reported (Ladner et al, Antimicrob. Agents Chemother. 1997, […], 1715). Briefly, cells are passaged upon attaining confluency in DMEM/F12 media in the presence of 10% FBS, Penn/Strep, 250 μg/mL G418, and 1 ug/ml tetracycline. Novel compounds are screened by first washing cells three times with PBS to remove tetracycline, and plating in 96 well plates at 35,000 cells/well. Compounds dissolved in DMSO are then diluted 1:200 into wells containing cells. Five days after compound addition, material is harvested for analysis. For an extended 8 day analysis, cells are plated and treated as described above, but media and compound are refreshed on d2 and d5 post initial treatment.
On harvest day, virion DNA is obtained by lysing with Sidestep Lysis and Stabilization Buffer and then quantified via quantitative real time PCR. Commercially available ELISA kits are used to quantitate the viral proteins HBsAg (Alpco) or HbeAg (US Biological) by following the manufacturer's recommended protocol after diluting samples to match the linear range of their respective assays. Irrespective of readout, compound concentrations that reduce viral product accumulation in the cell lysates or supernatants by 50% relative to no drug controls (EC50) are reported; EC50 ranges are as follows: A<0.1 μM; B 0.1-0.4 μM; C>0.4 μM.
CC(C)(C)OC(=O)N1C2CCC1CC(S(=O)(=O)c1cc(C(=O)Nc3cc(F)c(F)c(F)c3)ccc1Cl)C2 (centres unmarked) [Example 119] was tested, and the EC50 was > 400 nM.

Same assay, conditions: Hepatitis B virus, HePAD38, 120 h, HepAD38 cells, five days after compound addition; concentration reducing viral product accumulation by 50% relative to no drug controls; read-out: HepAD38 EC50
Molecule [N-]=[N+]=Nc1ccc(C(=O)Nc2cc(F)c(F)c(F)c2)cc1S(=O)(=O)[C@H]1C2CC[C@H]1C[C@]1(CO1)C2 [Example 145] has an EC50 of 100 to 400 nM.
With O=C(Nc1cc(F)c(F)c(F)c1)c1ccc(Cl)c(S(=O)(=O)C2CC[C@@H](O)[C@@H](O)CC2)c1 (some centres unmarked) [Example 83] the EC50 was 100 to 400 nM.
With O=C(Nc1ccc(F)c(F)c1)c1ccc(Cl)c(S(=O)(=O)[C@H]2CC3CCC(C2)[C@H]3O)c1 [Example 354] the EC50 was 100 to 400 nM.
CCOC(OCC)[C@]1(O)CC2CC[C@@H](C1)[C@H]2S(=O)(=O)c1cc(C(=O)Nc2cc(F)c(F)c(F)c2)ccc1Cl [Example 197] gave an EC50 of 100 to 400 nM.
For CS(=O)(=O)NC(=O)O[C@H]1CC[C@H](S(=O)(=O)c2cc(C(=O)Nc3cc(F)c(F)c(F)c3)ccc2Cl)CC1 [Example 53], the EC50 was > 400 nM.
With O=C(Nc1cc(F)c(F)c(F)c1)c1ccc(Cl)c(S(=O)(=O)[C@H]2C3CC[C@H]2C(O)C(=O)C3)c1 (some centres unmarked) [Example 146] the EC50 was < 100 nM.
In the case of O=C(Nc1cc(F)c(F)c(F)c1)c1ccc(Cl)c(S(=O)(=O)[C@H]2C3CC[C@H]2C[C@](O)(/C=N/Oc2ccccc2)C3)c1 [Example 157], the EC50 is reported as < 100 nM.
In the case of O=C[C@]1(O)CC2CC[C@@H](C1)[C@H]2S(=O)(=O)c1cc(C(=O)Nc2cc(F)c(F)c(F)c2)ccc1Cl [Example 129], the EC50 is reported as < 100 nM.
COC(=O)C1CON(Cc2ccccc2)[C@@]12CC1CC[C@@H](C2)[C@H]1S(=O)(=O)c1cc(C(=O)Nc2cc(F)c(F)c(F)c2)ccc1Cl (some centres unmarked) [Example 211] was tested, and the EC50 was > 400 nM.
For CC(CO)NC[C@]1(O)C2CCC1C[C@@H](S(=O)(=O)c1cc(C(=O)Nc3cc(F)c(F)c(F)c3)ccc1Cl)C2 (some centres unmarked) [Example 341], the EC50 was 100 to 400 nM.
With N#CC1CON(Cc2ccccc2)C1C1=C[C@@H]2CCC(C1)[C@@H]2S(=O)(=O)c1cc(C(=O)Nc2cc(F)c(F)c(F)c2)ccc1Cl (some centres unmarked) [Example 210] the EC50 was > 400 nM.
O=C(Nc1cc(F)c(F)c(F)c1)c1ccc(Cl)c(S(=O)(=O)[C@H]2C3CC[C@H]2C[C@@](O)(C#Cc2ccccc2)C3)c1 [Example 168] was tested, and the EC50 was > 400 nM.
With O=C(Nc1cc(F)c(F)c(F)c1)c1ccc(Cl)c(S(=O)(=O)[C@H]2C3CC[C@H]2C[C@](O)(COC/C=N/O)C3)c1 [Example 320] the EC50 was < 100 nM.
CS(=O)(=O)NC[C@@]1(O)CC2CC[C@@H](C1)[C@H]2S(=O)(=O)c1cc(C(=O)Nc2cc(F)c(F)c(F)c2)ccc1Cl [Example 186] gave an EC50 of 100 to 400 nM.
With CCCS(=O)(=O)c1cc(C(=O)Nc2cc(F)c(F)c(F)c2)ccc1Cl [Example 15] the EC50 was 100 to 400 nM.
With O=C(Nc1cc(F)c(F)c(F)c1)c1ccc(Cl)c(S(=O)(=O)C[C@@H]2C3CC[C@H]2C[C@H](O)C3)c1 [Example 193] the EC50 was 100 to 400 nM.
For O=C(Nc1cc(F)c(F)c(F)c1)c1ccc(Cl)c(S(=O)(=O)[C@H]2C3CC[C@H]2C[C@](O)(/C=N/OCc2c(F)c(F)c(F)c(F)c2F)C3)c1 [Example 235], the EC50 was 100 to 400 nM.
COc1cc(NC(=O)c2ccc(Cl)c(S(=O)(=O)[C@H]3CC[C@H](O)CC3)c2)ccn1 [Example 40] was tested, and the EC50 was > 400 nM.
In the case of O=C(Nc1cc(F)c(F)c(F)c1)c1ccc(Cl)c(O[C@H]2CC[C@H](O)CC2)c1 [Example 25], the EC50 is reported as > 400 nM.
O=C(Nc1cc(F)c(F)c(F)c1)c1ccc(Cl)c(S(=O)(=O)[C@H]2C3CC[C@H]2C[C@@](O)(C#Cc2ccccn2)C3)c1 [Example 172] gave an EC50 of 100 to 400 nM.
C=C1CC2CCC(C1)C2S(=O)(=O)c1cc(C(=O)Nc2cc(F)c(F)c(F)c2)ccc1Cl (centres unmarked) [Example 49] showed an EC50 of 100 to 400 nM.
For CCOC(=O)C(C)(C)S(=O)(=O)c1cc(C(=O)Nc2cc(F)c(F)c(F)c2)ccc1Cl [Example 92], the EC50 was > 400 nM.
With [2H]C1([2H])C2C[C@@](O)(CO)C[C@H](C1([2H])[2H])[C@@]2([2H])S(=O)(=O)c1cc(C(=O)Nc2cc(F)c(F)c(F)c2)ccc1Cl [Example 159] the EC50 was < 100 nM.
For CC(C)(C)OC(=O)N1C2CCC1CC(S(=O)(=O)c1cc(C(=O)Nc3cc(F)c(F)c(F)c3)ccc1Cl)C2 (centres unmarked) [Example 255], the EC50 was > 400 nM.
For CN(C)[C@H]1CC[C@H](S(=O)(=O)c2cc(C(=O)Nc3cc(F)c(F)c(F)c3)ccc2Cl)CC1 [Example 73], the EC50 was > 400 nM.
CC(C)[C@H](N)C(=O)OC[C@]1(O)CC2CC[C@@H](C1)[C@H]2S(=O)(=O)c1cc(C(=O)Nc2cc(F)c(F)c(F)c2)ccc1Cl [Example 254] was tested, and the EC50 was < 100 nM.
Work on O=C(Nc1cc(F)cc(F)c1)c1ccc(Cl)c(S(=O)(=O)[C@H]2CC[C@H](O)CC2)c1 [Example 68] yielded an EC50 of 100 to 400 nM.
With COc1cc(C(=O)Nc2cc(F)c(F)c(F)c2)ccc1Cl [Example 14] the EC50 was > 400 nM.
CC1(C)OC[C@@]2(CC3CC[C@@H](C2)[C@H]3S(=O)(=O)c2cc(C(=O)Nc3cc(F)c(F)c(F)c3)ccc2Cl)O1 [Example 128] was tested, and the EC50 was 100 to 400 nM.
In the case of O=C(Nc1cc(F)c(F)c(F)c1)c1ccc(Cl)c(S(=O)(=O)CCCCO[C@H]2C3CC[C@H]2C[C@](O)(CO)C3)c1 [Example 165], the EC50 is reported as > 400 nM.
O=C(Nc1cc(F)c(F)c(F)c1)c1ccc(Cl)c(S(=O)(=O)[C@H]2CC3CCC(C2)[C@H]3OC2CCCO2)c1 (some centres unmarked) [Example 184] was tested, and the EC50 was > 400 nM.
O=C(Nc1cc(F)c(F)c(F)c1)c1ccc(Cl)c(S(=O)(=O)[C@H]2CC[C@H](O)CC2)n1 [Example 62] was tested, and the EC50 was > 400 nM.
In the case of O=C(Nc1cc(F)c(F)c(F)c1)c1ccc(Cl)c(S(=O)(=O)C(CO)CC2CCOCC2)c1 (centres unmarked) [Example 166], the EC50 is reported as 100 to 400 nM.
O=C(Nc1cc(F)c(F)c(F)c1)c1ccc(Cl)c(S(=O)(=O)[C@H]2C3CC[C@H]2C[C@](O)(/C=N/OCc2ccc(F)cc2)C3)c1 [Example 232] was tested, and the EC50 was < 100 nM.
For O=C(Nc1cc(F)c(F)c(F)c1)c1ccc(Cl)c(SC2CCOCC2)c1 [Example 67], the EC50 was > 400 nM.
For O=C(Nc1cc(F)c(F)c(F)c1)c1ccc(Cl)c(S(=O)(=O)[C@@H]2CC[C@H](O)C2)c1 [Example 31], the EC50 was 100 to 400 nM.
In the case of O=C(Nc1cc(F)c(F)c(F)c1)c1ccc(Cl)c(S(=O)(=O)[C@H]2C3CCC2C[C@H](CO)C3)c1 [Example 106], the EC50 is reported as < 100 nM.
With Cn1ccnc1[C@]1(O)C2CCC1C[C@@H](S(=O)(=O)c1cc(C(=O)Nc3cc(F)c(F)c(F)c3)ccc1Cl)C2 [Example 362] the EC50 was < 100 nM.
In the case of COC(=O)C1=CON(Cc2ccccc2)C1[C@]1(O)CC2CC[C@@H](C1)[C@H]2S(=O)(=O)c1cc(C(=O)Nc2cc(F)c(F)c(F)c2)ccc1Cl (some centres unmarked) [Example 215], the EC50 is reported as > 400 nM.
With O=C(Nc1cc(F)c(F)c(F)c1)c1ccc(Cl)c(SCc2cccnc2)c1 [Example 35] the EC50 was > 400 nM.
With O=C1CCCC(S(=O)(=O)c2cc(C(=O)Nc3cc(F)c(F)c(F)c3)ccc2Cl)CO1 (centres unmarked) [Example 30] the EC50 was > 400 nM.
In the case of O=C(Nc1cc(F)c(F)c(F)c1)c1ccc(Cl)c(S(=O)(=O)C[C@H]2CC[C@@H](O)CC2)c1 [Example 112], the EC50 is reported as < 100 nM.
In the case of O=C(Nc1cc(F)c(F)c(F)c1)c1ccc(Cl)c(S[C@H]2CC[C@H](O)CC2)n1 [Example 61], the EC50 is reported as > 400 nM.
For O=C(Nc1cc(F)c(F)c(F)c1)c1ccc(Cl)c(S(=O)(=O)C2CC=CCC2)c1 (centres unmarked) [Example 20], the EC50 was 100 to 400 nM.
Work on C[C@]1(O)CC[C@H](S(=O)(=O)c2cc(C(=O)Nc3cc(F)c(F)c(F)c3)ccc2Cl)CC1 [Example 23] yielded an EC50 of 100 to 400 nM.
For O=C(Nc1cc(F)c(F)c(F)c1)c1ccc(Cl)c(S(=O)(=O)[C@H]2C3CC[C@H]2C[C@H](/C=N/O)C3)c1 [Example 229], the EC50 was < 100 nM.
For O=C(Nc1cc(F)c(F)c(F)c1)c1ccc(Cl)c(S(=O)(=O)[C@H]2C3CC[C@H]2C[C@H](c2cc(-c4ccccc4)on2)C3)c1 [Example 239], the EC50 was < 100 nM.
C=C1C2CCC1CC(S(=O)(=O)c1cc(C(=O)Nc3cc(F)c(F)c(F)c3)ccc1Cl)C2 (centres unmarked) [Example 207] was tested, and the EC50 was > 400 nM.
With O=C(Nc1cc(F)c(F)c(F)c1)c1ccc(Cl)c(S(=O)(=O)[C@H]2C[C@@H](O)C2)c1 [Example 34] the EC50 was > 400 nM.
Molecule O=C(Nc1cc(F)c(F)c(F)c1)c1ccc(Cl)c(S(=O)(=O)[C@H]2CC[C@H](F)CC2)c1 [Example 21] has an EC50 of 100 to 400 nM.
In the case of O=C(Nc1cc(F)c(F)c(F)c1)c1ccc(Cl)c(S(=O)(=O)[C@H]2C3CC[C@H]2C[C@](O)(COCc2cccnc2)C3)c1 [Example 187], the EC50 is reported as < 100 nM.
For O=C(Nc1cc(F)c(F)c(F)c1)c1ccc(Cl)c(S(=O)(=O)C[C@H]2CC[C@H](O)CC2)c1 [Example 111], the EC50 was < 100 nM.
Cc1c(NC(=O)c2ccc(Cl)c(S(=O)(=O)[C@]3(C)CC[C@@H](O)CC3)c2)cc(F)c(F)c1F [Example 19] was tested, and the EC50 was > 400 nM.
In the case of O=C(Nc1cc(F)c(F)c(F)c1)c1ccc(Cl)c(S(=O)(=O)[C@H]2C3CC[C@H]2C[C@](O)(COCCN2CCOCC2)C3)c1 [Example 325], the EC50 is reported as < 100 nM.
O=C(Nc1cc(F)c(F)c(F)c1)c1ccc(Cl)c(S[C@H]2C3CC[C@H]2C[C@](O)(CO)C3)c1 [Example 134] showed an EC50 of 100 to 400 nM.
For O=C(Nc1cc(F)c(F)c(F)c1)c1ccc(Cl)c(S(=O)(=O)[C@H]2C3CC[C@H]2C[C@]2(COS(=O)O2)C3)c1 (some centres unmarked) [Example 263], the EC50 was < 100 nM.
O=C(Nc1cc(F)c(F)c(F)c1)c1ccc(Cl)c(S(=O)(=O)C2CCC3(CC2)OCCO3)c1 [Example 1] gave an EC50 of 100 to 400 nM.
In the case of O=C(Nc1cc(F)c(F)c(F)c1)c1ccc(Cl)c(Sc2ccccc2)c1 [Example 71], the EC50 is reported as > 400 nM.
